The NIST ThermoML archive (doi:10.1016/j.fluid.2016.08.014)

How the values were obtained:
[1] = refractive index (Na D-line) (dimensionless); settings: 101.33 kPa, Liquid, Standard Abbe refractometry
[2] = Liquid, Vibrating tube method

NCCN [ethane-1,2-diamine]
[1]
Settings | refractive index
293.15 K | 1.45676
298.15 K | 1.45453

[2]
Settings | mass density [kg/m3]
293.15 K, 200 kPa | 898
293.15 K, 2500 kPa | 899
293.15 K, 5100 kPa | 900
293.15 K, 10000 kPa | 903
293.15 K, 15400 kPa | 905
293.15 K, 19800 kPa | 907
293.15 K, 25100 kPa | 909
293.15 K, 30200 kPa | 911
298.15 K, 101.33 kPa | 895.323
303.15 K, 300 kPa | 890
303.15 K, 2500 kPa | 891
303.15 K, 5000 kPa | 892
303.15 K, 10200 kPa | 893
303.15 K, 15000 kPa | 896
303.15 K, 20500 kPa | 898
303.15 K, 25100 kPa | 900
303.15 K, 30100 kPa | 902
313.15 K, 300 kPa | 880
313.15 K, 2500 kPa | 880
313.15 K, 5100 kPa | 882
313.15 K, 10000 kPa | 884
313.15 K, 15100 kPa | 887
313.15 K, 20100 kPa | 889
313.15 K, 25400 kPa | 892
313.15 K, 30400 kPa | 894
323.15 K, 200 kPa | 870
323.15 K, 2500 kPa | 870
323.15 K, 5100 kPa | 872
323.15 K, 10000 kPa | 875
323.15 K, 15000 kPa | 878
323.15 K, 19900 kPa | 880
323.15 K, 25100 kPa | 882
323.15 K, 29700 kPa | 885
333.15 K, 200 kPa | 860
333.15 K, 2500 kPa | 861
333.15 K, 5000 kPa | 863
333.15 K, 10000 kPa | 866
333.15 K, 15000 kPa | 868
333.15 K, 20000 kPa | 871
333.15 K, 25000 kPa | 874
333.15 K, 30000 kPa | 876
343.15 K, 200 kPa | 850
343.15 K, 2500 kPa | 852
343.15 K, 5100 kPa | 853
343.15 K, 10000 kPa | 856
343.15 K, 15000 kPa | 860
343.15 K, 20000 kPa | 862
343.15 K, 25100 kPa | 865
343.15 K, 30100 kPa | 867
353.15 K, 200 kPa | 840
353.15 K, 2500 kPa | 842
353.15 K, 5000 kPa | 844
353.15 K, 10200 kPa | 847
353.15 K, 15100 kPa | 850
353.15 K, 20000 kPa | 853
353.15 K, 25100 kPa | 856
353.15 K, 30100 kPa | 859
363.15 K, 200 kPa | 830
363.15 K, 2600 kPa | 832
363.15 K, 5100 kPa | 834
363.15 K, 10100 kPa | 838
363.15 K, 15000 kPa | 840
363.15 K, 20100 kPa | 844
363.15 K, 25600 kPa | 847
363.15 K, 30000 kPa | 850
373.15 K, 200 kPa | 820
373.15 K, 2500 kPa | 822
373.15 K, 5100 kPa | 825
373.15 K, 10100 kPa | 828
373.15 K, 15000 kPa | 831
373.15 K, 20100 kPa | 835
373.15 K, 25100 kPa | 838
373.15 K, 30200 kPa | 841
383.15 K, 200 kPa | 810
383.15 K, 2500 kPa | 813
383.15 K, 5200 kPa | 815
383.15 K, 10000 kPa | 818
383.15 K, 15200 kPa | 822
383.15 K, 20500 kPa | 826
383.15 K, 25000 kPa | 829
383.15 K, 30300 kPa | 832
